# Data taken from PubChem BioAssay (NCI).
#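 Where inhibition never reached the appropriate level, the endpoint shown equals the highest concentration tested. Otherwise, values were interpolated linearly from a five-concentration, 48-hour dose response in 96-well plates. At the TGI there is no net growth.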
# Tested on: SR leukemia
# Assay: NCI tumour cell line growth inhibition, 48 h
row,SMILES,TGI [µM]
1,NC(CCCCCP(=O)(c1ccccc1)C1C=CC=CC1)C(=O)O (stereo not drawn),> 100
2,CO/N=C(\C)c1ccc(Nc2nc3ccccc3c3occc23)cc1,58.6
3,O=P(O)(O)CCP(=O)(O)O,> 100
4,O=c1sc2ccccc2n1CC1CS1 (stereo not drawn),> 100
5,Cc1n(Cc2ccccc2)c2c([n+]1C)C(=O)c1ccccc1C2=O,> 45.5
6,O=C1c2cccc3c2C(=O)c2c(cccc21)OCCOCCOCCOCCO3,58.9
7,C=CCc1c(O)c2c(c3oc(=O)cc(C)c13)CC(C)O2 (stereo not drawn),> 100
8,CN(C)c1ccc(/C=c2/c3ccccc3n3c2c2c([n+]3C)CCCC2)cc1,1.06
9,CCOc1ncn(-c2ccc(NC(=S)Nc3ncccn3)cc2)n1,59.5
10,CCN(CC)CCNc1ccc2nnn3c4ccc(OCCN(CC)CC)cc4c(=O)c1c23,45.4
11,Nc1c(C(=O)O)nnc2ccc(Cl)cc12,> 100

# Tested on: SW-620 colon
# Assay: NCI tumour cell line growth inhibition, 48 h
row,SMILES,TGI [µM]
1,CCCC(=O)OCC1OC(n2ccc(N)nc2=O)C(OC(=O)CCC)C1OC(=O)CCC (stereo not drawn),> 100
2,O=S(=O)(O)CCCc1cccc2ccccc12,> 100
3,CC(=O)OC1/C=C(\C)C(OC(C)=O)C/C=C(/C)CCC2C(/C=C/C1=O)C2(C)C (stereo not drawn),> 100
4,NC(CCCCCP(=O)(c1ccccc1)C1C=CC=CC1)C(=O)O (stereo not drawn),> 100
5,COc1ccc(/C=C2\CCNC2=O)cc1,> 100
6,CC(C)Cc1ccc(C(C)C(=O)N2CCN(/C=C/c3ccccc3)CC2)cc1 (stereo not drawn),30.3
7,O=c1cc[nH]c(=O)[nH]1,> 1000
8,O=P(O)(O)CCP(=O)(O)O,> 100
9,O=c1sc2ccccc2n1CC1CS1 (stereo not drawn),> 100
10,Cc1n(Cc2ccccc2)c2c([n+]1C)C(=O)c1ccccc1C2=O,0.763
11,O=C1c2cccc3c2C(=O)c2c(cccc21)OCCOCCOCCOCCO3,> 100
12,C=CCc1c(O)c2c(c3oc(=O)cc(C)c13)CC(C)O2 (stereo not drawn),> 100
13,CN(C)c1ccc(/C=c2/c3ccccc3n3c2c2c([n+]3C)CCCC2)cc1,10.5
14,CCOc1ncn(-c2ccc(NC(=S)Nc3ncccn3)cc2)n1,> 100
15,CC1(C)OC(C(=O)Nc2cc3c4ccccc4ccc3c3ccccc23)C(C(=O)N2CCCCC2)O1 (stereo not drawn),> 100
16,CCN(CC)CCNc1ccc2nnn3c4ccc(OCCN(CC)CC)cc4c(=O)c1c23,> 100
17,COc1cc2c(cc1OC)C(CC1=C(c3ccccc3)CN3CCc4cc(OC)c(OC)cc4C3C1)NCC2 (stereo not drawn),34.6
18,CC(=O)Nc1ccc(N=Nc2c(O)c(S(=O)(=O)O)cc3cc(S(=O)(=O)O)ccc23)cc1,> 100
19,Nc1c(C(=O)O)nnc2ccc(Cl)cc12,> 100
20,O=C(O)C(O)C(O)C(O)C(O)c1nc2ccccc2s1 (stereo not drawn),54.7

# Tested on: U251 CNS
# Assay: NCI tumour cell line growth inhibition, 48 h
row,SMILES,TGI [µM]
1,CCCC(=O)OCC1OC(n2ccc(N)nc2=O)C(OC(=O)CCC)C1OC(=O)CCC (stereo not drawn),> 100
2,O=S(=O)(O)CCCc1cccc2ccccc12,> 100
3,CC(=O)OC1/C=C(\C)C(OC(C)=O)C/C=C(/C)CCC2C(/C=C/C1=O)C2(C)C (stereo not drawn),> 100
4,NC(CCCCCP(=O)(c1ccccc1)C1C=CC=CC1)C(=O)O (stereo not drawn),> 100
5,COc1ccc(/C=C2\CCNC2=O)cc1,> 100
6,CC(C)Cc1ccc(C(C)C(=O)N2CCN(/C=C/c3ccccc3)CC2)cc1 (stereo not drawn),25.5
7,CO/N=C(\C)c1ccc(Nc2nc3ccccc3c3occc23)cc1,35.6
8,O=c1cc[nH]c(=O)[nH]1,> 1000
9,O=P(O)(O)CCP(=O)(O)O,> 100
10,Cc1n(Cc2ccccc2)c2c([n+]1C)C(=O)c1ccccc1C2=O,0.131
11,O=C1c2cccc3c2C(=O)c2c(cccc21)OCCOCCOCCOCCO3,> 100
12,C=CCc1c(O)c2c(c3oc(=O)cc(C)c13)CC(C)O2 (stereo not drawn),> 100
13,CN(C)c1ccc(/C=c2/c3ccccc3n3c2c2c([n+]3C)CCCC2)cc1,2.3
14,CCOc1ncn(-c2ccc(NC(=S)Nc3ncccn3)cc2)n1,> 100
15,CC1(C)OC(C(=O)Nc2cc3c4ccccc4ccc3c3ccccc23)C(C(=O)N2CCCCC2)O1 (stereo not drawn),> 100
16,CCN(CC)CCNc1ccc2nnn3c4ccc(OCCN(CC)CC)cc4c(=O)c1c23,> 100
17,COc1cc2c(cc1OC)C(CC1=C(c3ccccc3)CN3CCc4cc(OC)c(OC)cc4C3C1)NCC2 (stereo not drawn),29.8
18,CC(=O)Nc1ccc(N=Nc2c(O)c(S(=O)(=O)O)cc3cc(S(=O)(=O)O)ccc23)cc1,> 100
19,Nc1c(C(=O)O)nnc2ccc(Cl)cc12,> 100
20,O=C(O)C(O)C(O)C(O)C(O)c1nc2ccccc2s1 (stereo not drawn),29.5

# Tested on: UACC-62 melanoma
# Assay: NCI tumour cell line growth inhibition, 48 h
row,SMILES,TGI [µM]
1,CCCC(=O)OCC1OC(n2ccc(N)nc2=O)C(OC(=O)CCC)C1OC(=O)CCC (stereo not drawn),> 100
2,O=S(=O)(O)CCCc1cccc2ccccc12,> 100
3,CC(=O)OC1/C=C(\C)C(OC(C)=O)C/C=C(/C)CCC2C(/C=C/C1=O)C2(C)C (stereo not drawn),> 100
4,NC(CCCCCP(=O)(c1ccccc1)C1C=CC=CC1)C(=O)O (stereo not drawn),> 100
5,COc1ccc(/C=C2\CCNC2=O)cc1,> 100
6,CC(C)Cc1ccc(C(C)C(=O)N2CCN(/C=C/c3ccccc3)CC2)cc1 (stereo not drawn),26.3
7,CO/N=C(\C)c1ccc(Nc2nc3ccccc3c3occc23)cc1,24.7
8,O=c1cc[nH]c(=O)[nH]1,> 1000
9,O=P(O)(O)CCP(=O)(O)O,> 100
10,O=c1sc2ccccc2n1CC1CS1 (stereo not drawn),> 100
11,Cc1n(Cc2ccccc2)c2c([n+]1C)C(=O)c1ccccc1C2=O,0.451
12,O=C1c2cccc3c2C(=O)c2c(cccc21)OCCOCCOCCOCCO3,> 100
13,C=CCc1c(O)c2c(c3oc(=O)cc(C)c13)CC(C)O2 (stereo not drawn),> 100
14,CN(C)c1ccc(/C=c2/c3ccccc3n3c2c2c([n+]3C)CCCC2)cc1,1.95
15,CCOc1ncn(-c2ccc(NC(=S)Nc3ncccn3)cc2)n1,91
16,CC1(C)OC(C(=O)Nc2cc3c4ccccc4ccc3c3ccccc23)C(C(=O)N2CCCCC2)O1 (stereo not drawn),> 100
17,CCN(CC)CCNc1ccc2nnn3c4ccc(OCCN(CC)CC)cc4c(=O)c1c23,> 100
18,COc1cc2c(cc1OC)C(CC1=C(c3ccccc3)CN3CCc4cc(OC)c(OC)cc4C3C1)NCC2 (stereo not drawn),36.3
19,CC(=O)Nc1ccc(N=Nc2c(O)c(S(=O)(=O)O)cc3cc(S(=O)(=O)O)ccc23)cc1,> 100
20,Nc1c(C(=O)O)nnc2ccc(Cl)cc12,> 100
21,O=C(O)C(O)C(O)C(O)C(O)c1nc2ccccc2s1 (stereo not drawn),28.8

# Tested on: UO-31 renal
# Assay: NCI tumour cell line growth inhibition, 48 h
row,SMILES,TGI [µM]
1,CCCC(=O)OCC1OC(n2ccc(N)nc2=O)C(OC(=O)CCC)C1OC(=O)CCC (stereo not drawn),> 100
2,O=S(=O)(O)CCCc1cccc2ccccc12,> 100
3,CC(=O)OC1/C=C(\C)C(OC(C)=O)C/C=C(/C)CCC2C(/C=C/C1=O)C2(C)C (stereo not drawn),> 100
4,NC(CCCCCP(=O)(c1ccccc1)C1C=CC=CC1)C(=O)O (stereo not drawn),> 100
5,COc1ccc(/C=C2\CCNC2=O)cc1,> 100
6,CC(C)Cc1ccc(C(C)C(=O)N2CCN(/C=C/c3ccccc3)CC2)cc1 (stereo not drawn),24
7,CO/N=C(\C)c1ccc(Nc2nc3ccccc3c3occc23)cc1,35.9
8,O=c1cc[nH]c(=O)[nH]1,> 1000
9,O=P(O)(O)CCP(=O)(O)O,> 100
10,O=c1sc2ccccc2n1CC1CS1 (stereo not drawn),> 100
11,Cc1n(Cc2ccccc2)c2c([n+]1C)C(=O)c1ccccc1C2=O,20.9
12,O=C1c2cccc3c2C(=O)c2c(cccc21)OCCOCCOCCOCCO3,99.8
13,C=CCc1c(O)c2c(c3oc(=O)cc(C)c13)CC(C)O2 (stereo not drawn),> 100
14,CN(C)c1ccc(/C=c2/c3ccccc3n3c2c2c([n+]3C)CCCC2)cc1,6.5
15,CCOc1ncn(-c2ccc(NC(=S)Nc3ncccn3)cc2)n1,36
16,CC1(C)OC(C(=O)Nc2cc3c4ccccc4ccc3c3ccccc23)C(C(=O)N2CCCCC2)O1 (stereo not drawn),> 100
17,CCN(CC)CCNc1ccc2nnn3c4ccc(OCCN(CC)CC)cc4c(=O)c1c23,> 100
18,COc1cc2c(cc1OC)C(CC1=C(c3ccccc3)CN3CCc4cc(OC)c(OC)cc4C3C1)NCC2 (stereo not drawn),23.4
19,CC(=O)Nc1ccc(N=Nc2c(O)c(S(=O)(=O)O)cc3cc(S(=O)(=O)O)ccc23)cc1,> 100
20,Nc1c(C(=O)O)nnc2ccc(Cl)cc12,> 100
21,O=C(O)C(O)C(O)C(O)C(O)c1nc2ccccc2s1 (stereo not drawn),30.1
